Reference: publication PMC6882465, “Towards discovery of new leishmanicidal scaffolds able to inhibit Leishmania GSK-3” (Journal of Enzyme Inhibition and Medicinal Chemistry, 2019)
Read-outs that look alike come from different tables or passages of the source. Values belong to the compound of their own block, whether it stands above or below them.

What was measured:
LdGSK-3 [1] = molecular target: T1, LdGSK-3 (Leishmania donovani, UniProt A6N857); design: method as in PMID 19445946; settings: cited from earlier work
LdGSK-3 [2] = molecular target: T1, LdGSK-3; assay: Inhibition of LdGSK-3 with Kinase Glo; format: biochemical; settings: Table S1; for IC50: read-out: LdGSK-3 IC50; for LdGSK-3 % inhibition: @10 µM
Experimental: Assessment of inhibition of LdGSK-3 with Kinase Glo^TM
The reaction was allowed to proceed for 30 min at 30 °C, then it was incubated at room temperature for another 10 min after addition of Kinase Glo reagents (Promega, Ref. V6712). ATP consumption by LdGSK-3 was measured indirectly through end-point luminescence measurement of each well in a Varioskan Flash microplate reader (Thermo).

[3] = test system: L. infantum promastigotes; assay: Leishmanicidal assay on promastigotes (inhibition of MTT reduction); format: cell-based, Leishmania infantum; settings: Table S1; 72 h
Experimental: (§1) Leishmania parasites were resuspended with the corresponding drug concentration at 2 × 10^6 parasites/mL (final concentration) in their respective growth media in 96 microwell plates (200 µL/well). The parasites were allowed to growth for 72 h at 26 °C for promastigotes and 96 h at 32 °C for axenic amastigotes. Afterwards, inhibition of proliferation was measured by the inhibition of MTT reduction by the parasites. […] MTT reduction was allowed to proceed for 2 h at the respective temperature, and the resulting formazan solubilised by addition of 50 µL/well of 10% SDS. Afterwards, the plate was read at 595 nm in a BioRad Microplate-reader, model 680. Samples were made by triplicate and assays were repeated at least twice.

[4] = test system: L. pifanoi axenic amastigotes; assay: Leishmanicidal assay on axenic amastigotes (inhibition of MTT reduction); format: cell-based, Leishmania pifanoi; settings: Table S1; 96 h; read-out: L. pifanoi amast. ax EC50
Experimental: as §1

[5] = test system: peritoneal murine macrophages (PMM); assay: Cytotoxicity on peritoneal murine macrophages (MTT); format: cell-based, Balb/c mice; settings: Table S1; 48 h
Experimental: Peritoneal murine macrophages were obtained from 8-week-old Balb/c mice previously elicited by i.p. injection with 1 mL of 10% thioglycollate medium three days prior to extraction. Macrophages were obtained by peritoneal washing (10 mL PBS, 4 °C). After extraction, macrophages were maintained in RPMI 1640-HIFCS at 37 °C and 5% CO2.
For peritoneal macrophages, the cells were seeded in 96 microwell plates at 1 × 10^5 cells/well and incubated (37 °C, 5% CO2) with the drug for 48 h. The toxicity was evaluated by the inhibition of MTT reduction as above.

hGSK-3β [6] = molecular target: T2, hGSK-3β (Homo sapiens, UniProt P49841); settings: Table S1, cited from earlier work
hGSK-3β [7] = molecular target: T2, hGSK-3β; assay: hGSK-3β inhibition; format: biochemical; settings: Table S1; reference not given

T2 sequence (P49841 whole entry): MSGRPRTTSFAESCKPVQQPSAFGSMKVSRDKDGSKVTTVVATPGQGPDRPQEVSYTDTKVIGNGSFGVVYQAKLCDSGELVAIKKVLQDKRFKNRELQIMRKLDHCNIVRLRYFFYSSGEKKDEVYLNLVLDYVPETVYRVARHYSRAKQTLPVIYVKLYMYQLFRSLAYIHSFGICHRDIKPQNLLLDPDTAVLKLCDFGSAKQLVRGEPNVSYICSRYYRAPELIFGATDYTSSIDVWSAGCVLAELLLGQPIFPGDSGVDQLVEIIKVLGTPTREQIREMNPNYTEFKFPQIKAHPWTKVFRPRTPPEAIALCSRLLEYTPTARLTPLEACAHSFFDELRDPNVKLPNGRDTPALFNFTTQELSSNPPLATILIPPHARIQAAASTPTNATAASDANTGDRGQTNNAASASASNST
T1 sequence (A6N857 entry or part of it): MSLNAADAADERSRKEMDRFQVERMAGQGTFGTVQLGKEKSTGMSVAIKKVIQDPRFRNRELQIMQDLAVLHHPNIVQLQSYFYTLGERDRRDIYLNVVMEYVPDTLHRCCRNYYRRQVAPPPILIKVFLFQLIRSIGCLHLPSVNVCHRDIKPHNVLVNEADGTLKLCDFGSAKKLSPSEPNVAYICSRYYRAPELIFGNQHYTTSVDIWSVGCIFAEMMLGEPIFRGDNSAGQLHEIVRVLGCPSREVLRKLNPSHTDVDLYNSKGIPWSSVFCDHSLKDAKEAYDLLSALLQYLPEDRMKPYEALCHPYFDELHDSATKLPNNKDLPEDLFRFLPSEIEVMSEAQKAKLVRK

SMILES: Cc1cc2c(cc1Br)NC(=O)C2=C1Nc2ccccc2C1=NO [6-bromo-5-methylindirubin-3'-oxime]
LdGSK-3 inhibition (in words) (LdGSK-3 [1]): inhibited

SMILES: O=C(CCl)c1ccc(Br)s1 [Compound 6]
IC50 (LdGSK-3 [2]): 12.5 ± 2.4 µM
EC50 [3]: 0.9 ± 0.1 µM
EC50 [4]: 1.7 ± 0.1 µM
EC50 [5]: 6.8 ± 0.4 µM
IC50 (hGSK-3β [6]; ref 4 (supplement)): 10 µM

SMILES: O=C(CCl)c1cc(Cl)sc1Cl [Compound 8]
IC50 (LdGSK-3 [2]): 10.3 ± 2 µM
EC50 [3]: 4.4 ± 0.1 µM
EC50 [4]: 2.4 ± 0.4 µM
EC50 [5]: 3.6 ± 0.5 µM
IC50 (hGSK-3β [6]; ref 4 (supplement)): 5 µM

Now from value to compound, other results behind:

LdGSK-3 % inhibition (LdGSK-3 [2]): < 20%
SMILES: CCCCCCCC(=O)NNC(=O)c1c(O)c2ccccc2n(C)c1=O [Compound 12]
EC50 [3]: > 50 µM
EC50 [4]: 20.8 µM
IC50 (hGSK-3β [6]; ref 7 (supplement)): 8.7 ± 0.4 µM

IC50 (LdGSK-3 [2]): 17.7 ± 2.7 µM
SMILES: O=C(CBr)C1=C(c2c[nH]c3ccccc23)C(=O)NC1=O [Compound 15]
EC50 [3]: > 50 µM
EC50 [4]: > 50 µM
IC50 (hGSK-3β [6]; ref 8 (supplement)): 0.047 ± 0.007 µM

LdGSK-3 % inhibition (LdGSK-3 [2]): < 20%
SMILES: CC(=O)C1=C(c2c[nH]c3ccccc23)C(=O)NC1=O [Compound 16]
EC50 [3]: > 50 µM
EC50 [4]: 2.5 ± 2.7 µM
EC50 [5]: > 50 µM
IC50 (hGSK-3β [6]; ref 8 (supplement)): 4.47 ± 0.35 µM

LdGSK-3 % inhibition (LdGSK-3 [2]): 35.5%
SMILES: COc1ccc(-n2cnc3cc(C(=O)CBr)ccc32)cc1 [Compound 17]
EC50 [3]: 3.4 ± 0.5 µM
EC50 [4]: 4.5 ± 0.2 µM
EC50 [5]: > 25 µM
IC50 (hGSK-3β [6]; ref 8 (supplement)): 0.58 ± 0.07 µM

IC50 (hGSK-3β [7]): 9.72 ± 0.57 µM
LdGSK-3 % inhibition (LdGSK-3 [2]): < 20%
SMILES: COc1ccc(CNC(=O)Nc2nc(C)c(C(=O)CBr)s2)cc1 [Compound 19]
EC50 [3]: > 25 µM
EC50 [4]: 14.4 ± 2.6 µM
EC50 [5]: 32 ± 3.1 µM
